Data from patent publication US20120128711A1, “ANTI-INFLAMMATORY APPROACH TO PREVENTION AND SUPPRESSION OF POST-TRAUMATIC STRESS DISORDER, TRAUMATIC BRAIN INJURY, DEPRESSION AND ASSOCIATED DISEASE STATES” (TOTAL NUTRACEUTICAL SOLUTIONS, INC., priority 2009, published 2012).
Entries after “also recorded” stand apart in the source; their conditions may differ.

Key:
[1] = system: Drosophila melanogaster under Paraquat-induced oxidative stress; assay: Survival of Drosophila melanogaster under Paraquat-induced oxidative stress; format: in vivo; conditions: 10 mM Paraquat
Method: The effect of Agaricus Blazei without enrichment, with Vitamin D2 enrichment, pure Vitamin D2 and control (vehicle for the delivery) on the survival rate of Drosophila melanogaster under Paraquat-induced oxidative stress condition was tested. The study focused on the control of Paraquat induced oxidative stress/biologic death. Paraquat is a very potent oxidative stress inducing chemical and causes death in animals and plants by the toxicity of released free radicals. Paraquat (10 mM concentration) (Sigma Aldrich) was used to chemically induce oxidative stress. Paraquat is the trade name for N,N′-dimethyl-4,4′-bipyridinium dichloride, a widely used herbicide. Paraquat, a viologen, is quick-acting and non-selective, killing green plant tissue on contact. It is also toxic to humans when swallowed. This is the most standard chemical used in experimental induction of oxidative stress using the Drosophila model system. It catalyzes the formation of reactive oxygen species (ROS). Paraquat will undergo redox cycling in vivo, gets reduced by an electron donor such NADPH, before being oxidized by an electron receptor such as dioxygen to produce superoxide, a major ROS.
The following materials and methods were utilized. Vials containing 10 mM Paraquat (from Sigma Aldrich) in 5 ml of 1.2% Low melting point Agarose medium were prepared. A strip of half moist filter paper was inserted in the medium (with the wet end in). Yeast paste containing 1% concentration (w/w) of the various test materials (see above) mixed to homogeneity was prepared. Yeast paste without drug was used as control. Uniform aliquot (˜300 mg) of yeast paste with or without the test material) was applied to vials in such a way that yeast paste was on the glass surface and covered the dry end (top) of the filter paper strip. Freshly enclosed wild type isogenized Canton-S males and females were collected and starved on 1% agar medium for 5-6 hours. Four males and females were transferred to the vial containing 10 mM paraquat in LMP agarose medium and yeast paste with +/− test material (8 flies per vial). 6 vials were used per experiment. Vials with flies were placed horizontally in a tray. The experiment was conducted at 25 degrees C. temperature. Flies were transferred once in 2 days and the number of flies surviving at each transfer was recorded.

[2] = system: Alzheimer's disease (AD) model in Drosophila; assay: Survival of Alzheimer's disease (AD) model flies (UAS-hAPP;408-GAL4); format: in vivo; conditions: mushroom or turmeric powder 1% w/w, Vitamin D2/D3 0.75% w/w in yeast paste, 25 degrees C
Description: Type of Model (with specific Drosophila model of neurodegeneration, with references). The targeted over/ectopic expression of APP in the brain using a UAS promoter driven APP transgene, induced by a specific GAL4 trans-driver in the brain of a Drosophila model system, was used for this Example. Below is a reference for such over-expression of APP in the Drosophila model system and the combination gives a fully penetrant AD with limited life-span.
β-Amyloid peptides and amyloid precursor protein (APP) play a deterministic role in Alzheimer's disease (AD). […]
We determined the extension of life span in the mutant strain for each test compound. […]
A series of experiments were run according to the methods earlier reported on Paraquat induced oxidative stress and Drosophila Alzheimer's disease flies. […] We determined the extension of life span in the mutant strain for each test compound as detailed below. […]
In the meantime, yeast paste containing required concentration of compound was prepared. […] Required quantity of both yeast and compound was weighed and finely ground in a pestle and mortar. The finely ground powder was transferred to a small beaker and appropriate quantity of water was added and mixed very well to make a homogeneous paste. […]

Structure (SMILES) | effect on survival under Paraquat-induced oxidative stress (words) [1] | survivability under Paraquat-induced oxidative stress condition ([1]; 1% w/w test material in yeast paste, period of 10 days, 25 degrees C) [%+/−3%] | effect on survival under Paraquat-induced oxidative stress (words) ([1]; listed as Vitamin D2) | effect on survival of AD flies [2]
C=C1CC[C@H](O)C/C1=C/C=C1\CCC[C@]2(C)[C@@H]([C@H](C)/C=C/[C@H](C)C(C)C)CC[C@@H]12 [pure Vitamin D2, ergocalciferol] | no effect on survival | 13 | deleterious effect on the survival; also recorded: no beneficial effect | no such effect
C=C1CC[C@H](O)C/C1=C/C=C1\CCC[C@]2(C)[C@@H]([C@H](C)CCCC(C)C)CC[C@@H]12 [Vitamin D3, cholecalciferol] | no beneficial effect; also recorded: no effect on survival |  |  | 
